Biological target: PAI-1 (Homo sapiens, UniProt P05121)
Settings: for inhibitory activity towards PAI-1 (in words): in vitro

Sequence of PAI-1 (P05121 24-402, species assumed): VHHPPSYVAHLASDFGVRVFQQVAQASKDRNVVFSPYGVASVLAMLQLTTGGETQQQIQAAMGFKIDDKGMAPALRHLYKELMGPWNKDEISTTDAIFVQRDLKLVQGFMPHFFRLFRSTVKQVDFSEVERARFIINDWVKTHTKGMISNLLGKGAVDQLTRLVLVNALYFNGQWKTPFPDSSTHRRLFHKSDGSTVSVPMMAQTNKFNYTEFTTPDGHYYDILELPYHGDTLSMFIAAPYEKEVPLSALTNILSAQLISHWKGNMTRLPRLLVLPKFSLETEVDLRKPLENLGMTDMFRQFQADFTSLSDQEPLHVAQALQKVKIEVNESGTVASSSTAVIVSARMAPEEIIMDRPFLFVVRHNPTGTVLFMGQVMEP

## CCN(CCN(CC)S(=O)(=O)c1ccc(O)c(O)c1)S(=O)(=O)c1ccc(O)c(O)c1 [3b]
Ratio of IC50 values vs 3a
  increase in inhibitor potency against PAI-1 compared to the non-alkylated version 3a: about 55 fold

## CCN(CCN(CC)S(=O)(=O)c1cc(O)ccc1O)S(=O)(=O)c1cc(O)ccc1O [compound 7]
  inhibitory activity towards PAI-1 (in words): lacked significant potency towards PAI-1

## O=S(=O)(c1ccc(O)c(O)c1)N1CCN(S(=O)(=O)c2ccc(O)c(O)c2)CC1 [compound 4]
  inhibitory activity towards PAI-1 (in words): lacked significant inhibitory activity towards PAI-1

## CCN(CCN(CC)S(=O)(=O)c1cc(F)c(O)c(F)c1)S(=O)(=O)c1cc(F)c(O)c(F)c1 [compound 13, bis-3,5-difluoro-4-hydroxybenzenesulfonamide]
Ratio of IC50 values vs 3b
  fold less potent against PAI-1 than the 3,4-dihydroxy version (3b): roughly 15 fold
